Laboratory results reported in BigSolDB 2.1.

CCOC(=O)[C@H](CCc1ccccc1)N[C@@H](C)C(=O)O
solubility (mole fraction)
Settings	273.15 K	278.15 K	283.15 K	288.15 K	293.15 K	298.15 K	303.15 K	308.15 K	313.15 K	318.15 K
in acetone	0.00387	0.00426	0.00468	0.00515	0.00568	0.00627	0.007	0.0078	0.00868	0.0097
in acetonitrile	0.00012	0.000199	0.000288	0.000427	0.000608	0.000907	0.00129	0.00183	0.00255	0.00349
in ethanol	0.00273	0.00281	0.00294	0.00312	0.00334	0.0036	0.00396	0.00436	0.00489	0.00545
in ethyl acetate	0.00898	0.0092	0.00951	0.00991	0.0104	0.0109	0.0115	0.0123	0.0131	0.014
in isopropanol	0.000921	0.00105	0.0012	0.00141	0.00164	0.00191	0.00221	0.00257	0.00298	0.00346
in n-octanol	0.00215	0.00223	0.00233	0.00246	0.00263	0.00284	0.0031	0.00343	0.00378	0.0042

CCOC(=O)[C@H](CCc1ccccc1)N[C@@H](C)C(=O)N1CCC[C@H]1C(=O)O.O=C(O)/C=C\C(=O)O
solubility (mole fraction)
Settings	273.15 K	278.15 K	283.15 K	288.15 K	293.15 K	298.15 K	303.15 K	308.15 K	313.15 K	318.15 K
in acetone	0.00118	0.00139	0.00176	0.0021	0.00243	0.00302	0.0038	0.00451	0.0054	0.00651
in acetonitrile	0.000339	0.000452	0.000569	0.000716	0.0009	0.00117	0.00153	0.00204	0.00261	0.00334
in ethanol	0.000616	0.000761	0.000998	0.00133	0.00177	0.00226	0.00292	0.00366	0.00449	0.00536
in ethyl acetate	0.0013	0.00171	0.00231	0.00304	0.00379	0.00471	0.00576	0.00689	0.00796	0.00941
in isopropanol	0.000144	0.000184	0.000242	0.000327	0.000452	0.000605	0.000809	0.00105	0.00133	0.00176
in n-octanol	0.000311	0.000406	0.000509	0.000642	0.00083	0.00105	0.00131	0.00167	0.00206	0.00256
